From patent US12622945B2, “Hard tissue therapeutics” (OrthoTrophix, Inc., priority 2020, dated 2026) come the findings set out here.

The test system of series [1] is subjects with bilateral knee osteoarthritis. In words: Multicenter, randomized double-blind, placebo-controlled clinical study in bilateral knee osteoarthritis. In kind it is in vivo, human. The conditions noted are these: IA injections. As to the method:
No other doses of drug or placebo were administered.
MRI of both knees were obtained from these 93 subjects at baseline, 6 and/or 12 months. They were sent to the central readers of cartilage thickness and 3D bone shape, respectively. Both central readers were blinded to the treatment assignment and clinical data throughout their analysis process.
For the 3D bone shape analyses, its central reader first made a qualification review of all MRI images from the 93 subjects since they were obtained primarily for cartilage thickness measurement.
MRIs from the remaining 78 subjects (156 knees: 78 Index and 78 Control) were qualified for analysis of 3D shape of the knee joint bones (B-scores of femur, tibia, and patella).
If all clinical inclusion and exclusion criteria were met, MRIs of both knees were obtained and evaluated by a central reader to determine the ICRS grade (gICRS) of each knee as the final screening criterion. […]
Vital signs were also monitored after the injections.
Adverse events and concomitant medications were recorded.
All KOOS subscale scores, WOMAC Total score and subscale scores, MRI-based patello-femoral and tibiofemoral cartilage thickness, and MRI-based subchondral bone area and 3D bone shape were analyzed.
MRI images were provided to central readers for cartilage and subchondral bone measures, respectively. Central readers were blind as to treatment assignment. […]

For series [2] the following is noted: in vivo.

Entries after “also recorded” stand apart in the source; their conditions may differ. Where no end group is shown, it is not given here.

In the case of “TDLQERGDNDISPFSGDGQPFKD-NH2 (C-terminus assumed) [SEQ ID No: 10]”, in series [1], the adverse events entry was “no severe adverse events that were related to the peptide; also recorded: mild or moderate, transient”; the safety and tolerability result is “safe and well tolerated”. Also, the “biological effects on cell types, tissues, or organs other than hard tissues” value in series [2] was “never demonstrated biological effects of the peptide on cell types, tissues, or organs other than cartilage, bone, and dentin”.
